Data on two compounds can be found in patent US5204329A, “Treatment of organ transplantation rejection” (Du Pont Merck Pharmaceutical Company, priority 1990, dated 1993).

Each structure is given as a SMILES string. Several values for one entry are separate records, joined by “and”; a condition that tells them apart may be missing. Equal entries are not always repeated.

Data set [1] has as its system dihydroorotate dehydrogenase. The conditions noted are these: consequent inhibition of pyrimidine nucleotide biosynthesis; Chen et al. (1986); cited from earlier work.
The subject of data set [2] is contact sensitivity response to 2,4-dinitrofluorobenzene (DNFB). Nature of the data set: Contact Sensitivity Response to DNFB in Mice (ear swelling). In kind it is in vivo, Balb/c female mice. As for the experimental part: Balb/c female mice ([…].20 g, Charles River) were sensitized on the shaved abdomen with 25 μl of 0.5% 2,4-dinitrofluorobenzene (DNFB, Eastman Kodak Co.) in a vehicle of 4:1 acetone:olive oil on days 0 and 1. Mice were ear challenged with 20 μl of 0.2% DNFB in a vehicle of 4:1 acetone:olive oil on day 5. An identical segment of the ear was measured immediately before challenge and 24 hours later with an engineer's micrometer. Ear swelling was expressed as the difference in ear thickness before and after challenge in units of 10^-4 inches±SEM. Percent suppression was calculated as: [formula] […] Control animals received only vehicle (0.25% Methocel®). Negative controls were not sensitized on days 0 and 1 but were ear challenged on day 5. Ten mice were used per group.
Contact sensitivity to DNFB is a form of delayed-type hypersensitivity which has been extensively studied to gain an understanding of the regulation of immunologic processes (Claman et. al. (1980), Immunological Rev. 50:105-132). This reaction is mediated by T lymphocytes that become sensitized to antigen by proliferating and developing into mature effector cells (Claman et. al. (1980), Immunological Rev. 105-132). This cell-mediated immune response (T-cell mediated immunity) is central to many disease states such as organ transplantation rejection and graft versus host disease (Benacerraf and Unanue (1979), Textbook of Immunology, Williams & Wilkins Co.,; Eisen (1980), Immunology, An Introduction to Molecular and Cellular Principles of the Immune Responses, Harper & Row, Inc.; Loveland and McKenzie (1982), Inflammation, Basic Principles and Clinical Correlates, Raven Press). […]

The conditions of data set [3]: known immunosuppressive agents; listed as AZA; cited from earlier work.
The mark [4] stands for this setting: Table 1, 0.4 mg/kg oral, days 0-6.
Setting [5] is: Table 1, 2.0 mg/kg oral, days 0-6.
Where [6] appears, read: Table 1, 10.0 mg/kg oral, days 0-6.
The mark [7] stands for this setting: Table 1, 20.0 mg/kg oral, days 0-6.
Where [8] appears, read: Table 4, dosing only day 0 and 1, 20.0 mg/kg.

What is called ED50 is the dose that gives a 50% effect, or the effect in half of the subjects. Lower therefore signals greater potency. Consider `Cc1c(-c2ccc(-c3ccccc3F)cc2)nc2ccc(F)cc2c1C(=O)O` [Example 28, 2-(2'-fluoro-1,1'-biphenyl-4-yl)-6-fluoro-3-methyl-4-quinoline carboxylic acid], for which the “unique mechanism of action: inhibition of dihydroorotate dehydrogenase” value in data set [1] is reported as “inhibition of dihydroorotate dehydrogenase”. In data set [2] (Mus musculus, Table 1, agent alone, oral, days 0-6), this compound displayed an ED50 of 0.95 mg/kg. In addition, the “% Suppression” value in data set [2] (setting [4]) worked out at 30.20%; in data set [2] (setting [5]), 66.10%; in data set [2] (setting [6]) it was 92.28%; in data set [2] (setting [7]), 94.53%; in data set [2] (setting [8]) it was 14.4%. In addition, the “Ear Swelling (units ± SEM), increase in ear thickness from day 5 to day 6” value was 51.95 ± 2.33 10^-4 inches in data set [2] (setting [4]), 25.61 ± 3.39 10^-4 inches in data set [2] (setting [5]), 6.40 ± 1.09 10^-4 inches in data set [2] (setting [6]) and 4.75 ± 1.20 10^-4 inches in data set [2] (setting [7]). Also, the “Ex. 28 ED50” value in data set [2] (Table 2, with cyclosporin A 6.3 mg/kg) is reported as 1.0 mg/kg; in data set [2] (Table 2, with cyclosporin A 12.5 mg/kg) it was 0.8 mg/kg; in data set [2] (Table 2, with cyclosporin A 25.0 mg/kg) it was 0.7 mg/kg; in data set [2] (Table 2, with cyclosporin A 30.0 mg/kg), 0.4 mg/kg; in data set [2] (Table 2, with cyclosporin A 50.0 mg/kg), 0.4 mg/kg; in data set [2] (Table 2, with cyclosporin A 70.0 mg/kg), less than 0.3 mg/kg. For the same compound, the “Ex. 28 ED50” value in data set [2] (Table 3, with azathioprine 6.3 mg/kg) is listed as 1.3 mg/kg; in data set [2] (Table 3, with azathioprine 12.5 mg/kg), 0.8 mg/kg; in data set [2] (Table 3, with azathioprine 25.0 mg/kg), 0.7 mg/kg; in data set [2] (Table 3, with azathioprine 50.0 mg/kg), less than 0.1 mg/kg; in data set [2] (Table 3, with azathioprine 100.0 mg/kg) it was less than 0.1 mg/kg; in data set [2] (Tables 2 and 3, cyclosporin A / azathioprine at 0 mg/kg), 1.4 mg/kg. The “ΔEar Swelling” value in data set [2] (setting [8]) was determined as 59.6 ± 2.5. Besides, the “% Suppression of Ear Swelling” value was 6.5 ± 2.9% and 6.5 ± 2.8% in data set [2] (agent alone, 0.1 mg/kg, days 0-6, listed as Ex. 28, 0.1 mg/kg); 7.3 ± 2.4% in data set [2] (agent alone, 0.3 mg/kg, days 0-6); 31.4% in data set [2] (agent alone, 1.0 mg/kg, days 0-6); 31.4 ± 3.3% in data set [2] (agent alone, 1.0 mg/kg, days 0-6, listed as Ex. 28, 1 mg/kg); 91.9 ± 2.3% in data set [2] (agent alone, 3.0 mg/kg, days 0-6); 93.9 ± 2.4% in data set [2] (agent alone, 10.0 mg/kg, days 0-6).
On to `Cn1cnc([N+](=O)[O-])c1Sc1ncnc2nc[nH]c12` [Azathioprine, reference compound], for which the “clinically observed toxicities / side effects” value in data set [3] was “nephrotoxicity and hepatoxicity”. In addition, the “Azathioprine ED50” value in data set [2] (Table 3, Ex. 28 at 0 mg/kg) is 38.0 mg/kg; in data set [2] (Table 3, with Ex. 28 at 0.1 mg/kg), 42.0 mg/kg; in data set [2] (Table 3, with Ex. 28 at 0.3 mg/kg) it was 43.0 mg/kg; in data set [2] (Table 3, with Ex. 28 at 1.0 mg/kg), 7.5 mg/kg; in data set [2] (Table 3, with Ex. 28 at 3.0 mg/kg), less than 6.3 mg/kg; in data set [2] (Table 3, with Ex. 28 at 10.0 mg/kg), less than 6.3 mg/kg. The “% Suppression of Ear Swelling” value is 2.5 ± 4.2% in data set [2] (agent alone, 6.3 mg/kg, days 0-6); 15.9 ± 3.3% in data set [2] (agent alone, 12.5 mg/kg, days 0-6); 15.9% in data set [2] (agent alone, 12.5 mg/kg, days 0-6, listed as azathioprine); 29.7 ± 4.1% in data set [2] (agent alone, 25.0 mg/kg, days 0-6); 72.1 ± 3.1% in data set [2] (agent alone, 50.0 mg/kg, days 0-6); 97.7 ± 1.6% in data set [2] (agent alone, 100.0 mg/kg, days 0-6).
